Laboratory results: ChEMBL document CHEMBL4007416, “Thieno[3,2-b]pyrrole-5-carboxamides as New Reversible Inhibitors of Histone Lysine Demethylase KDM1A/LSD1. Part 2: Structure-Based Drug Design and Structure-Activity Relationship” (J Med Chem, 2017)
pIC50, pKi: −log10 of the molar value. The source made the active and inactive calls. The rule behind the calls is not given here.

Columns and labels:
LSD1/CoREST complex [1] = biological target: T1, LSD1/CoREST complex (Homo sapiens, UniProt O60341); experiment: Inhibition of recombinant human KDM1A/CoREST complex expressed in Escherichia coli using [Lys(Me1)4]-Histone H3 (1 to 21 residues)-GGK(biotin) as substrate incubated for 20 mins measured after 1 hr by TR-FRET assay
LSD1/CoREST complex [2] = biological target: T1, LSD1/CoREST complex; experiment: Competitive inhibition of recombinant human KDM1A/CoREST complex expressed in Escherichia coli using H3K4me peptide as substrate preincubated for 15 mins followed by substrate addition measured for 12 mins by Lineweaver-Burk plot analysis
[3] = biological target: Lysine-specific histone demethylase 1A (Homo sapiens) (UniProt O60341); experiment: Inhibition of KDM1A in human THP1 cells assessed as increase in CD11b expression level at 0.5 uM after 48 hrs by flow cytometric analysis; type: cell-based
MV4-11 = experiment: Antiproliferative activity against human MV4-11 cells
[4] = biological target: T2, Amine oxidase [flavin-containing] A (Homo sapiens, UniProt P21397); experiment: Inhibition of recombinant human MAOA incubated for 15 mins measured after 30 mins by luminescence-Glo assay
T2 sequence (P21397 whole entry): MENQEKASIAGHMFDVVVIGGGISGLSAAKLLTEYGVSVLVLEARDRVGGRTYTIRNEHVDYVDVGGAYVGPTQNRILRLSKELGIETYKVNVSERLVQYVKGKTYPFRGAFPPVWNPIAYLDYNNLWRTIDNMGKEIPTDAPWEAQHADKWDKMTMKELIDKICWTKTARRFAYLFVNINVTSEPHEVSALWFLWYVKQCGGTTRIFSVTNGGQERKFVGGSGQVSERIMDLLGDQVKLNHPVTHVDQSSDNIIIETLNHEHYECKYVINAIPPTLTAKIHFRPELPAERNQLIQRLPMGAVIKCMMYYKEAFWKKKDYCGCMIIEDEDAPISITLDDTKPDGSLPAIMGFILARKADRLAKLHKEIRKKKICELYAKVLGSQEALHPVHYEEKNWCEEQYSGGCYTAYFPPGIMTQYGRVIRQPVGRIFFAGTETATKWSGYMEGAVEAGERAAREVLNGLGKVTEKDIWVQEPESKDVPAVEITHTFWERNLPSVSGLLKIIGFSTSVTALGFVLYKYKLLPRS

[5] = biological target: T3, Amine oxidase [flavin-containing] B (Homo sapiens, UniProt P27338); experiment: Inhibition of recombinant human MAOB incubated for 15 mins measured after 30 mins by luminescence-Glo assay
T3 sequence (P27338 whole entry): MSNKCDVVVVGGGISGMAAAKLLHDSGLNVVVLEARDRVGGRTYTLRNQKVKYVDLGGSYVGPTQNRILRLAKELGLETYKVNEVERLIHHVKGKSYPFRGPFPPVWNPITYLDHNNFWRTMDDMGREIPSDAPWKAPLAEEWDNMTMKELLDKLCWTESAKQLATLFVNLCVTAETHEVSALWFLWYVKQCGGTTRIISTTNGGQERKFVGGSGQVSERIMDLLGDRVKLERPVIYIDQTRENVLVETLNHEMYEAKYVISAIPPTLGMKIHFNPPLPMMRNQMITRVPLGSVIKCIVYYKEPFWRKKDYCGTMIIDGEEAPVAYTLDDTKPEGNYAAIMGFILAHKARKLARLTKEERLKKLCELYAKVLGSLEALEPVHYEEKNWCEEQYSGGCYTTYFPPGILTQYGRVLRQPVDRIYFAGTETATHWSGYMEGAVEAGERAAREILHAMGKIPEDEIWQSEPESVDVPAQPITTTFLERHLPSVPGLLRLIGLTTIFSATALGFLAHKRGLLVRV

NB-4 = experiment: Antiproliferative activity against human NB4 cells
THP-1 [6] = experiment: Antiproliferative activity against human THP1 cells
[7] = biological target: Lysine-specific histone demethylase 1A (Homo sapiens) (UniProt O60341); experiment: Inhibition of KDM1A in human THP1 cells assessed as increase in CD86 expression level at 0.5 uM after 48 hrs by flow cytometric analysis; type: cell-based
THP-1 [8] = experiment: Cell cycle arrest in human THP1 cells at 1 uM after 72 hrs by propidium iodide staining based flow cytometry; type: functional
THP-1 [9] = experiment: Induction of apoptosis in human THP1 cells at 1 uM after 72 hrs by Annexin V-propidium iodide double staining based flow cytometry; type: functional, cell-based
THP-1 [10] = experiment: Anticlonogenic activity against human THP1 cells assessed as inhibition of methylcellulose colony formation at 1 uM after 13 days relative to control; type: functional; conditions: THP-1, 312 h
[11] = tested on: CN1CCC(Oc2ccc(OCc3ccccc3NC(=O)c3cc4sccc4n3C)cc2)CC1; experiment: Inhibition of recombinant human KDM1A/CoREST complex expressed in Escherichia coli assessed as Km for substrate using H3K4me peptide as substrate preincubated for 15 mins followed by substrate addition measured for 12 mins by Lineweaver-Burk plot analysis
[12] = tested on: CN1CCC(Oc2ccc(OCc3ccccc3NC(=O)c3cc4sccc4n3C)cc2)CC1; experiment: Inhibition of recombinant human KDM1A/CoREST complex expressed in Escherichia coli assessed as Vmax for substrate using H3K4me peptide as substrate preincubated for 15 mins followed by substrate addition measured for 12 mins by Lineweaver-Burk plot analysis

Compound | pIC50 (LSD1/CoREST complex [1]) | other results
CN1CCC(Oc2ccccc2OCc2ccccc2NC(=O)c2cc3sccc3n2C)CC1 | 4.17 | –
CCN1CCC(Oc2ccc(OCc3ccccc3NC(=O)c3cc4sccc4n3C)cc2)CC1 | 6.35 | –
Cn1c(C(=O)Nc2ccccc2COc2ccc(O[C@H]3CC[C@@H](N)CC3)cc2)cc2sccc21 | 6.92 | –
Cn1c(C(=O)Nc2ccccc2COc2ccc(N3CCNCC3)cc2)cc2sccc21 | 5.82 | –
CN1CCC(Oc2ccc(OCc3ccccc3NC(=O)c3cc4sccc4n3C)cc2)CC1 | 6.48 to 6.51 | pKi (LSD1/CoREST complex [2]): 5.64
CC(C)OCc1cccc(NC(=O)c2cc3sccc3n2C)c1COc1ccc(OC2CCNCC2)cc1 | 7.18 | –
Cn1c(C(=O)Nc2ccccc2COc2ccc(OC3CCCNCC3)cc2)cc2sccc21 (stereo not given) | 7.19 | –
Cn1c(C(=O)Nc2ccccc2COc2ccc(OCC3CCNCC3)cc2)cc2sccc21 | 6.83 | –
COCc1cccc(NC(=O)c2cc3sccc3n2C)c1COc1ccc(OC[C@@H]2CCNC2)cc1 | 8.08 | inhibition [3]: Active; pIC50 (MV4-11): 5.92; pIC50 [4]: 4.60; pIC50 [5]: < 4.00; pIC50 (NB-4): 6.40; pIC50 (THP-1 [6]): 5.89; inhibition [7]: Active
CCn1c(C(=O)Nc2cccc(COC)c2COc2ccc(OC[C@@H]3CCNC3)cc2)cc2sccc21 | 8.17 | inhibition [3]: Active; pIC50 (MV4-11): 5.39; pIC50 [4]: 4.33; pIC50 [5]: < 4.00; pIC50 (NB-4): 5.54; Activity (THP-1 [8]): inactive; Activity (THP-1 [9]): inactive; pIC50 (THP-1 [6]): 5.92; inhibition [7]: Active; inhibition at 1 µM (THP-1 [10]): 63.5%
CN1CCC(Oc2cccc(OCc3ccccc3NC(=O)c3cc4sccc4n3C)c2)CC1 | 6.00 | –
Cn1c(C(=O)Nc2ccccc2CCc2ccc(OC3CCNCC3)cc2)cc2sccc21 | 6.75 | –
Cn1c(C(=O)Nc2ccccc2COc2ccc(OC3C[C@H]4CC[C@@H](C3)N4)cc2)cc2sccc21 (stereo not given in full) | 6.91 | –
CCOCc1cccc(NC(=O)c2cc3sccc3n2C)c1COc1ccc(OC2CCNCC2)cc1 | 7.25 | –
CN1CCC(Oc2ccc(COc3ccccc3NC(=O)c3cc4sccc4n3C)cc2)CC1 | 6.47 | –
Cn1c(C(=O)Nc2ccccc2COc2ccc(OC[C@@H]3CCNC3)cc2)cc2sccc21 | 7.74 | –
Cn1c(C(=O)Nc2ccccc2COc2ccc([C@H]3CC[C@H](N)CC3)cc2)cc2sccc21 | 6.47 | –
Cn1c(C(=O)Nc2ccccc2COc2ccc(OC3CCN(Cc4ccccc4)CC3)cc2)cc2sccc21 | < 4.00 | –
CCOCc1cccc(NC(=O)c2cc3sccc3n2C)c1COc1ccc(OC[C@@H]2CCNC2)cc1 | 8.11 | inhibition [3]: Active; pIC50 (MV4-11): 5.60; pIC50 [4]: 4.38; pIC50 [5]: < 4.00; pIC50 (NB-4): 5.92; Activity (THP-1 [8]): inactive; Activity (THP-1 [9]): inactive; pIC50 (THP-1 [6]): 5.62; inhibition [7]: Active; inhibition at 1 µM (THP-1 [10]): 70.5%
CC(=O)N1CCC(Oc2ccc(OCc3ccccc3NC(=O)c3cc4sccc4n3C)cc2)CC1 | < 4.00 | –
Cn1c(C(=O)Nc2ccccc2OCC2CCN(CC3CCNCC3)CC2)cc2sccc21 | 5.77 | –
CN1CCN(Cc2ccc(OCc3ccccc3NC(=O)c3cc4sccc4n3C)cc2)CC1 | 5.54 | –
COCc1cccc(NC(=O)c2cc3sccc3n2C)c1COc1ccc(OC[C@H]2CCNC2)cc1 | 7.07 | –
Cn1c(C(=O)Nc2ccccc2COc2ccc(OC3CCNCC3)cc2)cc2sccc21 | 7.03 to 7.05 | –
Cn1c(C(=O)Nc2ccccc2COc2ccc(OC3CCCNC3)cc2)cc2sccc21 (stereo not given) | 6.17 | –
Cn1c(C(=O)Nc2ccccc2COc2ccc(OCC3CCNC3)cc2)cc2sccc21 (stereo not given) | 7.66 | –
COCc1cccc(NC(=O)c2cc3sccc3n2C)c1COc1ccc(OC2CCNCC2)cc1 | 7.12 to 7.13 | –
COCc1cccc(NC(=O)c2cc3sccc3n2C)c1COc1ccc(OC2CCCNCC2)cc1 (stereo not given) | 7.53 | –
Cn1c(C(=O)Nc2cccc(CN3CCOCC3)c2COc2ccc(OC3CCNCC3)cc2)cc2sccc21 | 7.19 | –
LSD1/CoREST complex (Homo sapiens) (from UniProt O60341+Q9UKL0) | – | Km [11]: 1.5 µM; Vmax [12]: 226 µmol/min

Second part, led by results:

pIC50 (LSD1/CoREST complex [1]) | Compound | other results
5.49 | Cn1c(C(=O)Nc2ccccc2COc2ccc(CNC(=N)N)cc2)cc2sccc21 | –
< 4.00 | COCc1ccccc1NC(=O)c1cc2sccc2n1C | –
5.89 | CNCCCOc1ccc(OCc2ccccc2NC(=O)c2cc3sccc3n2C)cc1 | –
< 4.00 | COc1ccccc1NC(=O)c1cc2sccc2n1C | –
< 4.00 | Cn1c(C(=O)Nc2ccccc2COc2ccncc2)cc2sccc21 | –
5.60 | Cn1c(C(=O)Nc2ccccc2COc2ccc(NC3CCNCC3)cc2)cc2sccc21 | –
4.33 | Cn1c(C(=O)Nc2ccc(COc3ccncc3)cc2)cc2sccc21 | –
< 4.00 | Cn1c(C(=O)Nc2ccccc2OCc2ccncc2)cc2sccc21 | –
6.09 | Cn1c(C(=O)Nc2ccccc2COc2ccc(OC3CCNC3)cc2)cc2sccc21 (stereo not given) | –
5.66 | Cn1c(C(=O)Nc2ccccc2C(=O)Nc2ccc(OC3CCNCC3)cc2)cc2sccc21 | –
5.60 | CN1CCC(Oc2ccc(OCc3ccc(NC(=O)c4cc5sccc5n4C)cc3)cc2)CC1 | –
< 4.00 | COc1ccc(NC(=O)c2cc3sccc3n2C)cc1 | –
< 4.00 | Cn1c(C(=O)Nc2ccc(OCc3ccncc3)cc2)cc2sccc21 | –
6.21 | Cn1c(C(=O)Nc2ccccc2COc2ccc(OCC3CNC3)cc2)cc2sccc21 | –
5.24 | Cn1c(C(=O)Nc2cccc(OCc3ccncc3)c2)cc2sccc21 | –
< 4.00 | COCc1ccc(NC(=O)c2cc3sccc3n2C)cc1 | –
